We go through 22 compounds from US20050239784A1 (priority 2002, published 2005).

In brackets after ≈: the same amount, converted by molar mass. Read-outs that look alike come from different tables or passages of the source. Some results are limits rather than exact numbers.

Data set [1] has as its target T1, CDC25B (Homo sapiens, UniProt P30305).
T1 sequence (P30305 1-580): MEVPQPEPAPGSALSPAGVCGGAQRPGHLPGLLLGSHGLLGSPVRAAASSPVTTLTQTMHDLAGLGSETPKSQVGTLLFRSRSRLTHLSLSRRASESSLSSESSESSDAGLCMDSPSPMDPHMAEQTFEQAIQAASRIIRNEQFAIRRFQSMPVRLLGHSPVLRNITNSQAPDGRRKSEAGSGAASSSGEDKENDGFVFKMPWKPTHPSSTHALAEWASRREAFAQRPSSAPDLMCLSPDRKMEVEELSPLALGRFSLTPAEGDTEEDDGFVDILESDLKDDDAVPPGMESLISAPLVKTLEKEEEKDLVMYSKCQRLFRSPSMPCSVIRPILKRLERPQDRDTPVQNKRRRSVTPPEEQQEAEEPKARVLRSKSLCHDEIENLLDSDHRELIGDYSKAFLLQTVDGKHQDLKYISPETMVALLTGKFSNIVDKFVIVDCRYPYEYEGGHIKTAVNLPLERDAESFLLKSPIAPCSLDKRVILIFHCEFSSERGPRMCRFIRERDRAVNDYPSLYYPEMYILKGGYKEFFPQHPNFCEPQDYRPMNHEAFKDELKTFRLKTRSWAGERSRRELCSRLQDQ
Kind of data set: biochemical.

For data set [2], the system named is A2780 cells. Kind of data set: Cytotox survival of A2780 cells after 3 days. The data set is classed as cell-based. Conditions: for IC50: Homo sapiens, A2780, 72 h. Here is the method: In an alternative assay, the growth inhibitory effect of the compounds was tested on the ovarian carcinoma cell line A2780 using art known cytotoxicity assays such as LIVE/DEAD (Molecular Probes) MTT.

Data set [3] addresses T2, AKT3 (Homo sapiens, UniProt Q9Y243). Kind of data set: cell-based.
Target sequence in this assay (Q9Y243 whole entry): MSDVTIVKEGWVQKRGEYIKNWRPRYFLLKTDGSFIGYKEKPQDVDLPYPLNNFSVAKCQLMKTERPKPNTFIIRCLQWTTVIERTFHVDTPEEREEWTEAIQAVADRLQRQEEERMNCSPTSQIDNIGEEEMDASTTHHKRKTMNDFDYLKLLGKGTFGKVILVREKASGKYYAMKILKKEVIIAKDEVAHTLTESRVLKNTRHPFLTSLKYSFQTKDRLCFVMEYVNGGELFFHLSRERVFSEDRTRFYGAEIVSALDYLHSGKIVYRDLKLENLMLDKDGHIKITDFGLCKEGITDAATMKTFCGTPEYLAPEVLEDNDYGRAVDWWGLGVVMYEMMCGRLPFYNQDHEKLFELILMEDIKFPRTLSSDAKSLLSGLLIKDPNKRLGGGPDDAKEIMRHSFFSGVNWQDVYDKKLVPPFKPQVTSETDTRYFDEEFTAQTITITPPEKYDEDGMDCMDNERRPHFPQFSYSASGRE
The target in data set [4] is T2, AKT3. Kind of data set: biochemical.
Target sequence in this assay (Q9Y243 whole entry, species assumed): as the sequence (Q9Y243 whole entry) above
Data set [5] is described as follows: physchem. Conditions: pH 7.4, aqueous buffer, kinetic from dmso stock.
For data set [6], the target named is CDK4 (Homo sapiens, UniProt P11802). Kind of data set: biochemical.
Chain of CDK4 (P11802 whole entry, species assumed): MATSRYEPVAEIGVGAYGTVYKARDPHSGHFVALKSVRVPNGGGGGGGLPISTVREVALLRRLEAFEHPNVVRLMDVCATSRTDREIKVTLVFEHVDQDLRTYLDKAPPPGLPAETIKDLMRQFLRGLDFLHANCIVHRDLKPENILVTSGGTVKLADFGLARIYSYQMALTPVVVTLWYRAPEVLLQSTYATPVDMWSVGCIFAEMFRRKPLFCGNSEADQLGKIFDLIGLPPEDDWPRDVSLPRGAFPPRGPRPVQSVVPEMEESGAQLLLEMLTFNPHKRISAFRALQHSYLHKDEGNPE
Chain of CDK4 (P24385 whole entry partner, species assumed): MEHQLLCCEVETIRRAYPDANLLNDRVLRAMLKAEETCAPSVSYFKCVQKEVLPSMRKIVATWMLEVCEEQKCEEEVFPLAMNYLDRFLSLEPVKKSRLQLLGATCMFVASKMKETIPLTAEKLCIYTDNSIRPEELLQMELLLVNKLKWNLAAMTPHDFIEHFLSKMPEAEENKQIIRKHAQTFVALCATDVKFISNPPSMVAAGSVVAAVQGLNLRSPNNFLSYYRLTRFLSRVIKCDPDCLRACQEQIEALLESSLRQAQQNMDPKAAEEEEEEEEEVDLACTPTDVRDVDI
Setting [7] is: read-out: CDC25B WT (Ex. C.5): pIC50 values (converted).
Setting [8] is: read-out: Cytotox survival of A2780 cells after 3 days - pIC50 values, A2780 cells, 3 days (converted).
[9] abbreviates: read-out: AKT cel (Ex. C.6): pIC50 values (converted).
Setting [10] is: read-out: AKT3 pep. (Ex. C.3): pIC50 values (converted).
The mark [11] stands for this setting: read-out: CDK4 SPA (Ex. C.1): pIC50 values (converted).
Setting [12] is: CDC25B WT (Ex. C.5): pIC50 values.
[13] abbreviates: A2780 cells, 3 days, read-out: Cytotox survival of A2780 cells after 3 days - pIC50 values (converted).
The mark [14] stands for this setting: AKT cel (Ex. C.6): pIC50 values, MDA-MB 231 cells, phosphorylated MAPK read-out.
Setting [15] is: AKT3 pep. (Ex. C.3): pIC50 values.
Where [16] appears, read: CDK4 SPA (Ex. C.1): pIC50 values.

`Cn1c(=O)nc2n(C3CCNCC3)nc(-c3ccccc3)nc-2c1=O`: the melting point is more than 250 °C.
The same measure, in the same setting: under `COc1cc(-c2nc3c(=O)n(C)c(=O)nc-3n(C3CCCC3)n2)cc(OC)c1OCCN1CCOCC1` stands 187.5 to 209 °C; under `COc1cc(-c2nc3c(=O)n(C)c(=O)nc-3n(C(C)C)n2)ccc1OCCN1CCCCC1`, 222 °C; under `COc1cc(-c2nc3c(=O)n(C)c(=O)nc-3n(C(C)C)n2)ccc1OCCN1CCN(C)CC1`, 233 °C.
Regarding `CC(C)n1nc(-c2ccc(OCCCN3CCCCC3)cc2)nc2c(=O)n(C)c(=O)nc1-2` [Compound 81], the IC50 was 38.9 nM in data set [1] (setting [7]); 132 nM in data set [2] (setting [8]); more than 1000 nM in data set [3] (setting [9]); 252 nM in data set [4] (setting [10]); 194 nM in data set [6] (setting [11]). The solubility in data set [5] was more than 1800 µM.
As for `CCCC(C)n1nc(-c2ccccc2)nc2c(=O)n(C)c(=O)nc1-2` (stereo not shown), the melting point worked out at 216 °C.
Take `CC(C)n1nc(-c2ccc(CN3CCN(S(=O)(=O)N(C)C)CC3)cc2)nc2c(=O)n(C)c(=O)nc1-2` [Compound 103]: the IC50 is 22.6 nM in data set [1] (setting [7]); 425 nM in data set [2] (setting [8]); more than 3020 nM in data set [3] (setting [9]); 129 nM in data set [4] (setting [10]); 357 nM in data set [6] (setting [11]). The solubility in data set [5] was 160 to 1800 µM (≈ 80.4 to 905 µg/mL).
Regarding `CC(C)n1nc(-c2ccc(OCCN3CCN(S(=O)(=O)N(C)C)CC3)cc2)nc2c(=O)n(C)c(=O)nc1-2` [Compound 79], the IC50 in data set [1] (setting [7]) was 26.2 nM; in data set [2] (setting [8]) it was 513 nM; in data set [3] (setting [9]), not below 3000 nM; in data set [4] (setting [10]), 282 nM; in data set [6] (setting [11]) it was 404 nM. The compound also displayed a solubility in data set [5] of 160 to 1800 µM (≈ 85.2 to 959 µg/mL).
Compound `Cn1c(=O)nc2n(C3CCN(C(=O)OC(C)(C)C)CC3)nc(-c3ccccc3)nc-2c1=O` gave a melting point of 250 °C.
In the case of `COc1cc(-c2nc3c(=O)n(C)c(=O)nc-3n(C(C)C)n2)cc(OC)c1OCCN1CCCCC1` [Compound 106], the IC50 in data set [1] (setting [7]) is 33.3 nM; in data set [3] (setting [9]) it was more than 3020 nM; in data set [4] (setting [10]), 117 nM; in data set [6] (setting [11]) it was 142 nM. Further, the “Cytotox survival of A2780 cells after 3 days - pIC50 values” in data set [2] (A2780 cells, 3 days) amounted to 6.074. This compound returned a solubility in data set [5] of more than 1800 µM.
Take `CC(C)n1nc(-c2ccc(OCCN3CCCCC3)c(Cl)c2)nc2c(=O)n(C)c(=O)nc1-2` [Compound 88]: the IC50 in data set [1] (setting [7]) is 25.8 nM; in data set [2] (setting [8]), 168 nM; in data set [3] (setting [9]), more than 1000 nM; in data set [4] (setting [10]), 239 nM; in data set [6] (setting [11]), 267 nM. Besides, the solubility in data set [5] fell in the range of 160 to 1800 µM (≈ 73.4 to 826 µg/mL).
For `CC(C)n1nc(-c2ccc(CN(C)C3CCN(S(=O)(=O)N(C)C)CC3)cc2)nc2c(=O)n(C)c(=O)nc1-2` [Compound 113], the IC50 was 119 nM in data set [1] (setting [7]); 220 nM in data set [2] (setting [8]); more than 3020 nM in data set [3] (setting [9]); 184 nM in data set [4] (setting [10]); 151 nM in data set [6] (setting [11]). Also, the solubility in data set [5] is more than 1800 µM.
`CC(C)n1nc(-c2ccc(OCCCN3CCOCC3)cc2)nc2c(=O)n(C)c(=O)nc1-2` [Compound 84]: the IC50 in data set [1] (setting [12]) was 38.3 nM; in data set [2] (setting [13]), 216 nM; in data set [3] (setting [14]) it was more than 1000 nM; in data set [4] (setting [15]), 280 nM; in data set [6] (setting [16]) it was 586 nM. In data set [5], this compound gave a solubility of more than 1800 µM.
For `CC(C)n1nc(-c2ccc(OCCN(C)S(=O)(=O)N(C)C)cc2)nc2c(=O)n(C)c(=O)nc1-2` [Compound 95], the IC50 in data set [1] (setting [7]) is 41.4 nM; in data set [2] (setting [8]), 481 nM; in data set [3] (setting [9]) it was more than 3000 nM; in data set [4] (setting [10]), 190 nM; in data set [6] (setting [11]), 321 nM. The compound also yielded a solubility in data set [5] of 160 to 1800 µM (≈ 76.4 to 860 µg/mL).
As for `CC(C)n1nc(-c2ccc(CNCCc3cccnc3)cc2)nc2c(=O)n(C)c(=O)nc1-2` [Compound 93], the IC50 in data set [1] (setting [12]) is 49.1 nM; in data set [2] (setting [13]) it was 272 nM; in data set [3] (setting [14]), more than 1000 nM; in data set [4] (setting [15]), 279 nM; in data set [6] (setting [16]) it was 193 nM. The same compound displayed a solubility in data set [5] of more than 1800 µM.
Take `Cn1nc(-c2ccccc2)nc2c(=O)n(C3CCN(C(=O)OC(C)(C)C)CC3)c(=O)nc1-2`: the melting point is more than 250 °C.
In turn, `CCOC(=O)C(C)n1nc(-c2ccccc2)nc2c(=O)n(C)c(=O)nc1-2` (stereo not shown) registered a melting point of 215 °C.
As for `CC(C)n1nc(-c2ccc(OCCN3CCN(C(=O)OC(C)(C)C)CC3)cc2)nc2c(=O)n(C)c(=O)nc1-2` [Compound 80], the IC50 in data set [1] (setting [7]) is 32.4 nM; in data set [2] (setting [8]), 390 nM; in data set [3] (setting [9]), more than 300 nM; in data set [4] (setting [10]), 395 nM; in data set [6] (setting [11]) it was 372 nM. In addition, the solubility in data set [5] lay in the range of 160 to 1800 µM (≈ 84.1 to 946 µg/mL).
With `COc1cc(-c2nc3c(=O)n(C)c(=O)nc-3n(C(C)C)n2)cc(OC)c1OCCN1CCN(C(=O)OC(C)(C)C)CC1` [Compound 89], the IC50 in data set [1] (setting [7]) is 35.5 nM; in data set [2] (setting [8]), 527 nM; in data set [3] (setting [9]) it was more than 1000 nM; in data set [4] (setting [10]), 352 nM; in data set [6] (setting [11]), 506 nM. In addition, the solubility in data set [5] is more than 1800 µM.
`CC(C)n1nc(-c2ccc(OCCN3CCOCC3)cc2)nc2c(=O)n(C)c(=O)nc1-2`: the melting point amounted to 232 °C.
On the same count and under the same terms, under `COc1cc(-c2nc3c(=O)n(C)c(=O)nc-3n(C)n2)ccc1OCCN1CCN(C)CC1` stands 239 °C.
With `COc1cc(-c2nc3c(=O)n(C)c(=O)nc-3n(C(C)C)n2)cc(OC)c1OCCN1CCN(C)CC1` [Compound 85], the IC50 in data set [1] (setting [7]) is 48.4 nM; in data set [2] (setting [8]), 228 nM; in data set [3] (setting [9]), more than 1000 nM; in data set [4] (setting [10]) it was 345 nM; in data set [6] (setting [11]), 322 nM. Moreover, the solubility in data set [5] is more than 1800 µM.

What is called melting point is the temperature, or range, at which the solid turns liquid. In general, solubility refers to how much of the substance goes into solution per volume. Read a high solubility as much dissolved substance.
